Reference: US5358951A, “Angiotensin II receptor blocking 2, 3, 6 substituted quinazolinones” (American Cyanamid Company, priority 1993, dated 1994)
Where a name gives a salt, the structure may show the parent alone.

Test system: vasopressor response of angiotensin II
Assay: AII Challenge: antagonism of angiotensin II vasopressor response
Type: in vivo
Details: for inhibition in vivo at 0.5 mg/kg: 0.5 mg/kg i.v.; for inhibition in vivo at 0.3 mg/kg: 0.3 mg/kg i.v.
Procedure, shortened: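 Percent antagonism is based on the systolic blood pressure rise (mmHg) to i.v. angiotensin II at 0.05 and 0.1 ug/kg. Each rat's own predose response was taken as 100%. Challenges were repeated from 30 to 300 min after i.v., i.p. or oral compound in cannulated conscious male SHR, 16-20 weeks old.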

[1] = 1 mg/kg P.O., AII 0.05 mcg/kg IV, 30 min post dose, sodium salt
[2] = 1 mg/kg P.O., AII 0.05 mcg/kg IV, 90 min post dose, sodium salt
[3] = 1 mg/kg P.O., AII 0.05 mcg/kg IV, 180 min post dose, sodium salt
[4] = 1 mg/kg P.O., AII 0.05 mcg/kg IV, 240 min post dose, sodium salt
[5] = 1 mg/kg P.O., AII 0.1 mcg/kg IV, 30 min post dose, sodium salt
[6] = 1 mg/kg P.O., AII 0.1 mcg/kg IV, 240 min post dose, sodium salt
[7] = Rattus norvegicus, iv, […], AII 0.1 mcg/kg IV, 90 min post dose

CCCCc1nc2ccc([C@@]3(C)C[C@@H]4CCCN4O3)cc2c(=O)n1Cc1ccc(-c2ccccc2-c2nnn[nH]2)cc1 (relative stereo) [Example 73, Cis-2-Butyl-6-(hexahydro-2-methylpyrrolo[1,2-b]isoxazol-2-yl)-3-[[2'-(1H-(tetrazol-5-yl)[1,1'-biphenyl-4-yl]methyl]-4(3H)-quinazolinone sodium salt] was tested, and the “% Inhibition” value [1] was 31%, the “Response Average Change” value [1] was 22.5 mmHg and the “Response Average Change” value (1 mg/kg P.O., AII 0.05 mcg/kg IV, 60 min post dose, sodium salt) was 12.5 mmHg. The “% Inhibition” value [2] was 38%, the “Response Average Change” value [2] was 20 mmHg and the “Response Average Change” value (1 mg/kg P.O., AII 0.05 mcg/kg IV, 120 min post dose, sodium salt) was 12.5 mmHg. For the same molecule, the “% Inhibition” value [3] was 23%, the “Response Average Change” value [3] was 25 mmHg and the “% Inhibition” value [4] was 15%. The “Response Average Change” value [4] was 27.5 mmHg, the “Response Average Change” value (1 mg/kg P.O., AII 0.05 mcg/kg IV, 300 min post dose) was 25 mmHg and the “% Inhibition” value [5] was 27%. For the same molecule, the “Response Average Change” value [5] was 27.5 mmHg, the “Response Average Change” value (1 mg/kg P.O., AII 0.1 mcg/kg IV, 60 min post dose, sodium salt) was 20 mmHg and the “Response Average Change” value (1 mg/kg P.O., AII 0.1 mcg/kg IV, 90 min post dose, sodium salt) was 22.5 mmHg. The “Response Average Change” value (1 mg/kg P.O., AII 0.1 mcg/kg IV, 120 min post dose) was 22.5 mmHg, the “Response Average Change” value (1 mg/kg P.O., AII 0.1 mcg/kg IV, 180 min post dose, sodium salt) was 22.5 mmHg and the “% Inhibition” value [6] was 33%. For the same molecule, the “Response Average Change” value [6] was 25 mmHg, the “Response Average Change” value (1 mg/kg P.O., AII 0.1 mcg/kg IV, 300 min post dose) was 22.5 mmHg and the “% Inhibition” value (1 mg/kg i.v., AII 0.05 mcg/kg IV, 60 min post dose) was 83%. For the same molecule, the inhibition in vivo at 0.5 mg/kg (Rattus norvegicus, iv, 0.5 h, AII 0.05 mcg/kg IV, 30 min post dose) was 73%, the inhibition in vivo at 0.5 mg/kg (Rattus norvegicus, iv, 0.5 h, AII 0.1 mcg/kg IV, 30 min post dose) was 67% and the inhibition in vivo at 1 mg/kg (Rattus norvegicus, iv, 0.5 h, 1 mg/kg i.v., AII 0.05 mcg/kg IV, 30 min post dose) was 83%. For the same molecule, the inhibition in vivo at 1 mg/kg (Rattus norvegicus, iv, 0.5 h, 1 mg/kg i.v., AII 0.1 mcg/kg IV, 30 min post dose) was 74%, the inhibition in vivo at 0.1 mg/kg (Rattus norvegicus, iv, 1 h, 0.1 mg/kg i.v., AII 0.05 mcg/kg IV, 60 min post dose) was 40% and the inhibition in vivo at 0.3 mg/kg (Rattus norvegicus, iv, 1 h, AII 0.1 mcg/kg IV, 60 min post dose) was 25%. It also gave an inhibition in vivo at 0.5 mg/kg (Rattus norvegicus, iv, 1 h, AII 0.05 mcg/kg IV, 60 min post dose) of 71%, an inhibition in vivo at 1 mg/kg (Rattus norvegicus, iv, 1 h, 1 mg/kg i.v., AII 0.05 mcg/kg IV, 60 min post dose) of 83% and an inhibition in vivo at 1 mg/kg (Rattus norvegicus, iv, 1 h, 1 mg/kg i.v., AII 0.1 mcg/kg IV, 60 min post dose) of 65%. It also gave an inhibition in vivo at 0.3 mg/kg (Rattus norvegicus, iv, 2 h, AII 0.05 mcg/kg IV, 120 min post dose) of 41%, an inhibition in vivo at 0.3 mg/kg (Rattus norvegicus, iv, 2 h, AII 0.1 mcg/kg IV, 120 min post dose) of 38% and an inhibition in vivo at 1 mg/kg (Rattus norvegicus, iv, 2 h, 1 mg/kg i.v., AII 0.05 mcg/kg IV, 120 min post dose) of 83%. The inhibition in vivo at 1 mg/kg (Rattus norvegicus, iv, 2 h, 1 mg/kg i.v., AII 0.1 mcg/kg IV, 120 min post dose) was 86%, the inhibition in vivo at 0.3 mg/kg (Rattus norvegicus, iv, 3 h, AII 0.05 mcg/kg IV, 180 min post dose) was 36% and the inhibition in vivo at 1 mg/kg (Rattus norvegicus, iv, 3 h, 1 mg/kg i.v., AII 0.05 mcg/kg IV, 180 min post dose) was 72%. It also gave an inhibition in vivo at 1 mg/kg (Rattus norvegicus, iv, 3 h, 1 mg/kg i.v., AII 0.1 mcg/kg IV, 180 min post dose) of 42%, an inhibition in vivo at 0.3 mg/kg (Rattus norvegicus, iv, 4 h, AII 0.05 mcg/kg IV, 240 min post dose) of 23% and an inhibition in vivo at 0.5 mg/kg (Rattus norvegicus, iv, 4 h, AII 0.1 mcg/kg IV, 240 min post dose) of 39%. For the same molecule, the inhibition in vivo at 1 mg/kg (Rattus norvegicus, iv, 4 h, 1 mg/kg i.v., AII 0.1 mcg/kg IV, 240 min post dose) was 74%, the inhibition in vivo at 1 mg/kg (Rattus norvegicus, iv, 5 h, 1 mg/kg i.v., AII 0.05 mcg/kg IV, 300 min post dose) was 50% and the inhibition in vivo at 1 mg/kg (Rattus norvegicus, iv, 5 h, 1 mg/kg i.v., AII 0.1 mcg/kg IV, 300 min post dose) was 60%. For the same molecule, the inhibition in vivo at 0.3 mg/kg (Rattus norvegicus, iv, […], AII 0.05 mcg/kg IV, 90 min post dose) was 48%, the inhibition in vivo at 0.3 mg/kg [7] was 29% and the inhibition in vivo at 0.5 mg/kg [7] was 50%. It also gave an inhibition in vivo at 1 mg/kg (Rattus norvegicus, iv, […], 1 mg/kg i.v., AII 0.05 mcg/kg IV, 90 min post dose) of 83%, an inhibition in vivo at 1 mg/kg (Rattus norvegicus, iv, […], 1 mg/kg i.v., AII 0.1 mcg/kg IV, 90 min post dose) of 79% and an inhibition in vivo at 1 mg/kg (Rattus norvegicus, po, 1 h, 1 mg/kg P.O., AII 0.05 mcg/kg IV, 60 min post dose) of 62%. For the same molecule, the inhibition in vivo at 1 mg/kg (Rattus norvegicus, po, 1 h, 1 mg/kg P.O., AII 0.1 mcg/kg IV, 60 min post dose) was 47%, the inhibition in vivo at 1 mg/kg (Rattus norvegicus, po, 2 h, 1 mg/kg P.O., AII 0.05 mcg/kg IV, 120 min post dose) was 62% and the inhibition in vivo at 1 mg/kg (Rattus norvegicus, po, 2 h, 1 mg/kg P.O., AII 0.1 mcg/kg IV, 120 min post dose) was 40%. For the same molecule, the inhibition in vivo at 1 mg/kg (Rattus norvegicus, po, 3 h, 1 mg/kg P.O., AII 0.1 mcg/kg IV, 180 min post dose) was 40%, the inhibition in vivo at 1 mg/kg (Rattus norvegicus, po, 5 h, 1 mg/kg P.O., AII 0.05 mcg/kg IV, 300 min post dose) was 23% and the inhibition in vivo at 1 mg/kg (Rattus norvegicus, po, 5 h, 1 mg/kg P.O., AII 0.1 mcg/kg IV, 300 min post dose) was 40%. It also gave an inhibition in vivo at 1 mg/kg (Rattus norvegicus, po, […], 1 mg/kg P.O., AII 0.1 mcg/kg IV, 90 min post dose) of 40%.
